Reference: US20120135923A1, “Use of Melanocortins to Treat Dyslipidemia” (IPSEN PHARMA, S.A.S., priority 2009, published 2012)
pEC50, pKi: −log10 of the molar value. Read-outs that look alike come from different tables or passages of the source. Bridge positions count the residues as written; N and C are the ends. Square brackets hold non-standard residues; d marks the D form. Peptide text beside a SMILES is read from it. Nle = CCCC[C@H](N)C(=O)O; GABA = NCCCC(=O)O

How the values were obtained:
hMC1-R [1] = target: T1, hMC1-R (Homo sapiens, UniProt Q01726); test: cyclic AMP bioassay (ECL) in CHO-K1 cells; type: cell-based
T1 construct: expressed in transfected cells; host or cells: CHO-K1
T1 sequence (Q01726 whole entry): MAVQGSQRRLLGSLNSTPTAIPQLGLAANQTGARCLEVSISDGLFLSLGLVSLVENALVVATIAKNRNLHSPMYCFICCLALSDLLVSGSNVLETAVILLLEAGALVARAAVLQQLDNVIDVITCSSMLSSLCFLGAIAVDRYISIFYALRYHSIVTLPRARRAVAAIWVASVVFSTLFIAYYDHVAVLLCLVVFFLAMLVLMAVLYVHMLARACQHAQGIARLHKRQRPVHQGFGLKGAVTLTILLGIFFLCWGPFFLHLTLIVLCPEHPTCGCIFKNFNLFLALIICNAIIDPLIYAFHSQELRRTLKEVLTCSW

hMC3-R [2] = target: T2, hMC3-R (Homo sapiens, UniProt P41968); test: cyclic AMP bioassay (ECL) in CHO-K1 cells; type: cell-based
T2 construct: expressed in transfected cells; host or cells: CHO-K1
T2 sequence (P41968 whole entry): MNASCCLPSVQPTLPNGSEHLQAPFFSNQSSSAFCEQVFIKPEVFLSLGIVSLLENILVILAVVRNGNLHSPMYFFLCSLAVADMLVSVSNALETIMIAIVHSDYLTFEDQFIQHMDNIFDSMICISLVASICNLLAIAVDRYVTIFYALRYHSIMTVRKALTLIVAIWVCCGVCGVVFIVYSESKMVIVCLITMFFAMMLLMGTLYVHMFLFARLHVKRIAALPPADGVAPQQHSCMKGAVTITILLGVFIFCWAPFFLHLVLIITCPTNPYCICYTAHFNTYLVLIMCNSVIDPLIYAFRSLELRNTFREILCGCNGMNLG

hMC4-R = target: T3, hMC4-R (Homo sapiens, UniProt P32245); test: cyclic AMP bioassay (ECL) in CHO-K1 cells; type: cell-based
T3 construct: expressed in transfected cells; host or cells: CHO-K1
T3 sequence (P32245 whole entry): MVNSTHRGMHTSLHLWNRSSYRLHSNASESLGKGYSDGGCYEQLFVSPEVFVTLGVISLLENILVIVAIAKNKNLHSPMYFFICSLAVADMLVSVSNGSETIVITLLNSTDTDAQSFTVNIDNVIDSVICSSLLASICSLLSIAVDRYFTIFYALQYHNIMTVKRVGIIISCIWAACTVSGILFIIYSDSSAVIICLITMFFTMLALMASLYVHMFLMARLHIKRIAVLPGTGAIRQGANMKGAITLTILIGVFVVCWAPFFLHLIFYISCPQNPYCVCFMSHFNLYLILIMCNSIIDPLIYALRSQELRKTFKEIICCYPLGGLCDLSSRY
Experimental: Intracellular cyclic AMP (cAMP) levels were determined by an electrochemiluminescence (ECL) assay (Meso Scale Discovery®, Gaithersburg, Md.; referred to hereinafter as MSD). […] Transgenic CHO-K1 cells stably expressing hMC receptor subtypes 1, 3, 4 or 5 were dispensed at a density of approximately 7,000 cells/well in 384-well Multi-Array®plates (MSD) containing integrated carbon electrodes and coated with anti-cAMP antibody. Increasing concentrations of the test compounds were added and the cells were incubated for approximately 40 minutes at approximately 37° C. […] At the end of the second incubation period read buffer (Tris-buffered solution containing an ECL co-reactant and Triton X-100 at ph 7.8) was added and the cAMP levels in the cell lysates were immediately determined by ECL detection with a Sector Imager 6000 Reader® (MSD). Data were analyzed using a computer-assisted non-linear regression analysis (XL fit; IDBS) and reported as either an EC50 value or a Kb value.
The Kb value reflects the potency of an antagonist and is determined by Schild analysis. In brief, concentration-response curves of an agonist are carried out in the presence of increasing concentrations of an antagonist. […] It is calculated by extrapolating the line on a Schild plot to zero on the y-axis.

hMC5-R [3] = target: T4, hMC5-R (Homo sapiens, UniProt P33032); test: cyclic AMP bioassay (ECL) in CHO-K1 cells; type: cell-based
T4 construct: expressed in transfected cells; host or cells: CHO-K1
T4 sequence (P33032 whole entry): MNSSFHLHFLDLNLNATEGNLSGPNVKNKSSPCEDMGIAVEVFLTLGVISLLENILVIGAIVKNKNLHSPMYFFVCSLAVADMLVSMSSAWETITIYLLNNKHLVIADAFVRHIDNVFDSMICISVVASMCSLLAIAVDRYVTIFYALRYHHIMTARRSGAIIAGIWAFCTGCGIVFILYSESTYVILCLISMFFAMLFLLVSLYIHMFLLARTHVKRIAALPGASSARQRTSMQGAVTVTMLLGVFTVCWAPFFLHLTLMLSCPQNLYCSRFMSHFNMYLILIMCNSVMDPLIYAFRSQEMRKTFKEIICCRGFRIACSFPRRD

hMC1-R [4] = target: T1, hMC1-R; test: Radioligand binding assay, [125I]-NDP-α-MSH competition, CHO-K1 membranes
Experimental: (§1) Cellular membranes used for the in vitro receptor binding assays were obtained from transgenic CHO-K1 cells stably expressing hMC-R receptor subtypes 1, 3, 4 or 5. […] The pellets were resuspended in the same buffer and centrifuged at 50,000 g for 10 minutes at approximately 4° C. The washed pellets containing the cellular membranes were stored at approximately −80° C.
(§2) Cell membranes (1-10 μg protein/well) prepared as described above were incubated in 50 mM Tris-HCl at pH 7.4 containing 0.2% bovine serum albumin (BSA), 5 mM MgCl2, 1 mM CaCl2 and 0.1 mg/mL bacitracin, with increasing concentrations of the test compound and 0.1-0.3 nM [^25I]-NDP-α-MSH for approximately 90-120 minutes at approximately 37° C. […] Filters were washed three times with 50 mM Tris-HCl at pH 7.4 at a temperature of approximately 0-4° C. and then assayed for radioactivity using a Packard Topcount® scintillation counter. Binding data were analyzed by computer-assisted non-linear regression analysis (XL fit; IDBS).

hMC3-R [5] = target: T2, hMC3-R; test: as above
Experimental: as §1, §2

hMC5-R [6] = target: T4, hMC5-R; test: as above; conditions: Table 5; read-out: Ki hMC5-R
Experimental: as §1, §2

[7] = Table 9A/9B, read-out: EC50 hMC1-R
[8] = Table 9A/9B, read-out: EC50 hMC3-R
[9] = Table 9A/9B, read-out: EC50 hMC4-R
[10] = Table 9A/9B, read-out: EC50 hMC5-R

Row | SMILES | pEC50 (hMC1-R [1]; [7]) | pEC50 (hMC3-R [2]; [8]) | pEC50 (hMC4-R; [9]) | pEC50 (hMC5-R [3]; [10]) | pKi (hMC1-R [4]; Table 5, read-out: Ki hMC1-R) | pKi (hMC3-R [5]; Table 5, read-out: Ki hMC3-R) | pEC50 (hMC1-R [1]) | pEC50 (hMC5-R [3]) | other results
1 | CC(=O)N[C@H](CCCNC(=N)N)C(=O)N[C@H]1CC(=O)NCCCC[C@@H](C(N)=O)NC(=O)[C@H](C)NC(=O)[C@H](Cc2c[nH]c3ccccc23)NC(=O)[C@H](CCCNC(=N)N)NC(=O)[C@@H](Cc2ccccc2)NC(=O)[C@H](Cc2c[nH]cn2)NC1=O [Ac-D-Arg-c(Asp-His-D-Phe-Arg-Trp-Ala-Lys)-NH2] | 8.83 | 8.24 | 10.11 | 6.53 | 9.10 | – | – | – | –
2 | CC(=O)N[C@@H](CC(C)C)C(=O)N[C@H]1CSSC[C@@H](C(N)=O)NC(=O)CCCNC(=O)[C@H](Cc2c[nH]c3ccccc23)NC(=O)[C@H](CCCNC(=N)N)NC(=O)[C@@H](Cc2ccccc2)NC(=O)[C@H](Cc2c[nH]cn2)NC1=O [Ac-Leu-c(Cys-His-D-Phe-Arg-Trp-Gaba-Cys)-NH2] (Ac-LCH[dF]RW[GABA]C-NH2; disulfide 2-8 (inferred)) | – | – | – | – | – | 7.76 | – | – | –
3 | CCCC[C@@H]1NC(=O)N(CC(=O)N[C@H]2CSSC[C@@H](C(N)=O)NC(=O)[C@H](Cc3c[nH]c4ccccc34)NC(=O)[C@H](CCCNC(=N)N)NC(=O)[C@@H](Cc3ccccc3)NC(=O)[C@H](Cc3cnc[nH]3)NC(=O)[C@H](CCC(=O)O)NC2=O)C1=O [Hydantoin(C(O)-(Nle-Gly))-c(Cys-Glu-His-D-Phe-Arg-Trp-Cys)-NH2] | – | – | – | – | – | – | – | – | pEC50 (hMC1-R [1]; Table 11, read-out: EC50 hMC1): 7.27; pEC50 (hMC3-R [2]; Table 11, read-out: EC50 hMC3): 7.91; pEC50 (hMC4-R; Table 11, read-out: EC50 hMC4): 9.75; pKi (hMC1-R [4]; Table 7, read-out: Ki hMC1): 7.84
4 | CCCC[C@H](NC(C)=O)C(=O)N[C@H]1CSSC[C@@H](C(N)=O)NC(=O)[C@H](Cc2c[nH]c3ccccc23)NC(=O)[C@H](CCCNC(=N)N)NC(=O)[C@@H](Cc2ccccc2)NC(=O)[C@H](Cc2c[nH]cn2)NC(=O)[C@@H](CC2CCCCC2)NC1=O [Ac-Nle-c(Cys-D-Cha-His-D-Phe-Arg-Trp-Cys)-NH2] | 9.09 | 9.27 | 9.34 | 7.34 | – | 8.68 | – | – | –
5 | CC(=O)N[C@H]1CSSC[C@@H](C(=O)N2CCC[C@H]2C(=O)N2CCC[C@H]2C(=O)N[C@@H](CCCCN)C(=O)N[C@@H](CC(=O)O)C(=O)NCCC(=O)N[C@@H](CCCNC(=N)N)C(=O)N[C@@H](CCCNC(=N)N)C(=O)N[C@@H](CCCNC(=N)N)C(=O)N[C@@H](CCCNC(=N)N)C(=O)N[C@@H](CCCNC(=N)N)C(=O)N[C@@H](CCCNC(=N)N)C(=O)N[C@@H](CCC(N)=O)C(=O)N[C@@H](CCCNC(=N)N)C(=O)N[C@@H](CCCNC(=N)N)C(=O)N[C@@H](CCCNC(=N)N)C(N)=O)NC(=O)[C@H](C)NC(=O)[C@H](Cc2csc3ccccc23)NC(=O)[C@H](CCCNC(=N)N)NC(=O)[C@@H](Cc2ccc3ccccc3c2)NC(=O)[C@H](Cc2c[nH]cn2)NC(=O)[C@H](CCC(=O)O)NC1=O | – | – | – | – | – | – | 7.16 | < 5.00 | Kb (hMC3-R [2]): 153 nM; Kb (hMC4-R): 33.2 nM; pKi (hMC3-R [5]; Ki hMC3-R, Table 6): 7.84
6 | CCCC[C@H](N)C(=O)N[C@H]1CSSC[C@@H](C(N)=O)NC(=O)CCCNC(=O)[C@H](Cc2c[nH]c3ccccc23)NC(=O)[C@H](CCCNC(=N)N)NC(=O)[C@@H](Cc2ccccc2)NC(=O)[C@H](Cc2c[nH]cn2)NC1=O [Nle-c(Cys-His-D-Phe-Arg-Trp-Gaba-Cys)-NH2] (H-[Nle]CH[dF]RW[GABA]C-NH2; disulfide 2-8) | 9.43 | 10.00 | 10.68 | 8.77 | 10.30 | – | – | – | –
7 | CCCC[C@H](NC(C)=O)C(=O)N[C@H]1CSSC(C)(C)[C@@H](C(N)=O)NC(=O)[C@H](Cc2c[nH]c3ccccc23)NC(=O)[C@H](CCCNC(=N)N)NC(=O)[C@@H](Cc2ccccc2)NC(=O)[C@H](Cc2c[nH]cn2)NC(=O)[C@@H](C)NC1=O [Ac-Nle-c(Cys-D-Ala-His-D-Phe-Arg-Trp-Pen)-NH2] | – | – | – | – | – | – | 7.84 | 5.65 | pEC50 (hMC3-R [2]): 8.69; pEC50 (hMC4-R): 9.74; pKi (hMC1-R [4]; Ki hMC1-R, Table 5): 7.54; pKi (hMC3-R [5]; Ki hMC3-R, Table 5): 7.64
8 | CC(=O)N[C@H]1CSSC[C@@H](C(=O)N2CCC[C@H]2C(=O)N2CCC[C@H]2C(=O)N[C@@H](CCCCN)C(=O)N[C@@H](CC(=O)O)C(=O)NCCC(=O)N[C@@H](Cc2ccc(O)cc2)C(=O)NCC(=O)N[C@@H](CCCNC(=N)N)C(=O)N[C@@H](CCCCN)C(=O)N[C@@H](CCCNC(=N)N)C(=O)N[C@@H](CCCNC(=N)N)C(=O)N[C@@H](CCCNC(=N)N)C(=O)N[C@@H](CCC(N)=O)C(=O)N[C@@H](CCCNC(=N)N)C(=O)N[C@@H](CCCNC(=N)N)C(=O)N[C@@H](CCCNC(=N)N)C(N)=O)NC(=O)[C@H](C)NC(=O)[C@H](Cc2csc3ccccc23)NC(=O)[C@H](CCCNC(=N)N)NC(=O)[C@@H](Cc2ccc3ccccc3c2)NC(=O)[C@H](Cc2c[nH]cn2)NC(=O)[C@H](CCC(=O)O)NC1=O | – | – | – | – | – | – | 7.95 | 7.02 | Kb (hMC3-R [2]): 52.1 nM; Kb (hMC4-R): 9.45 nM; pKi (hMC3-R [5]; Ki hMC3-R, Table 6): 8.95
9 | CCCC[C@H](NC(C)=O)C(=O)N[C@H]1CSSC[C@@H](C(N)=O)NC(=O)CCCNC(=O)[C@H](Cc2c[nH]c3ccccc23)NC(=O)[C@H](CCCNC(=N)N)NC(=O)[C@@H](Cc2ccccc2)NC(=O)[C@H](Cc2cccnc2)NC1=O [Ac-Nle-c(Cys-3-Pal-D-Phe-Arg-Trp-Gaba-Cys)-NH2] | – | – | – | – | 7.68 | 6.82 | – | – | pKi (hMC5-R [6]): 7.03
